Like-named read-outs stand apart in the source and are kept apart here. *1 amine or outer side, *2 acyl side, *3 side chain or, on linkers, in order; H or OH if unused. Where a SMILES comes first, the peptide text is derived from it. Bridges are numbered along the chain shown (N, C = ends). [ ]: non-standard residue; d: D form. The star is where a group is joined. hPhe(3-Cl-4-CF3) = N[C@@H](CCc1ccc(C(F)(F)F)c(Cl)c1)C(=O)O; NPrPhe(4-CF3) = CCCN[C@@H](Cc1ccc(C(F)(F)F)cc1)C(=O)O; X14 = COCCN([C@@H](Cc1ccc(C)cc1)C(=O)[*:2])[*:1]; NMePhe(4-Me) = CN[C@@H](Cc1ccc(C)cc1)C(=O)O; NMeGly(cPent) = CN[C@H](C(=O)O)C1CCCC1; Hyp = O=C(O)[C@@H]1C[C@@H](O)CN1; NMeD = CN[C@@H](CC(=O)O)C(=O)O; NMeL = CN[C@@H](CC(C)C)C(=O)O; Morpholide = C1CN(*)CCO1; Ac5c = NC1(C(=O)O)CCCC1; Sar = CNCC(=O)O
Key:
[1] = biological target: GDP-bound NRAS wild-type protein (Homo sapiens, UniProt P01111); assay: Binding to NRAS by surface plasmon resonance (SPR), KD and KD ratio to KRAS
Outline: (§1)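 Single-cycle kinetics on GDP-loaded biotin-Avi RAS captured to ~100–300 RU; 75 s ascending injections, 100 µL/min, 30°C. HBS pH 7.4 + 10 mM MgCl2/10 µM GDP/4% DMSO. 1:1 fit, KD.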

[2] = system: human lung cancer strain NCI-H441; assay type: cell-based
Outline: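 Proliferation was scored by […] measured after the reagent was added to cultures kept at 37°C in 5% carbon dioxide.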

[3] = biological target: HRAS wild-type protein (Homo sapiens, UniProt P01112); assay: Binding to HRAS by surface plasmon resonance (SPR), KD and KD ratio to KRAS
Outline: as §1

[4] = ratio of KD for GDP-bound NRAS wild-type protein to KD for KRAS
[5] = ratio of KD for HRAS wild-type protein to KD for KRAS
[6] = ratio of KD value for GDP-bound NRAS wild-type protein to KD value for KRAS (SPR)
[7] = ratio of KD value for HRAS wild-type protein to KD value for KRAS (SPR)
[8] = ratio of the KD value with respect to GDP-bound NRAS wild-type protein to the KD value with respect to KRAS
[9] = ratio of the KD value with respect to HRAS wild-type protein to the KD value with respect to KRAS

GDP-bound NRAS wild-type protein, sequence (P01111 whole entry): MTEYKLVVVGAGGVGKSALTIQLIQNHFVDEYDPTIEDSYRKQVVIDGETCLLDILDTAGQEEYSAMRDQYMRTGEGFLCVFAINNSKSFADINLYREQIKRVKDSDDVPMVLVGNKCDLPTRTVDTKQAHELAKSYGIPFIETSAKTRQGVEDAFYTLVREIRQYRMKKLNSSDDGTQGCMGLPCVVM
HRAS wild-type protein, sequence (P01112 whole entry): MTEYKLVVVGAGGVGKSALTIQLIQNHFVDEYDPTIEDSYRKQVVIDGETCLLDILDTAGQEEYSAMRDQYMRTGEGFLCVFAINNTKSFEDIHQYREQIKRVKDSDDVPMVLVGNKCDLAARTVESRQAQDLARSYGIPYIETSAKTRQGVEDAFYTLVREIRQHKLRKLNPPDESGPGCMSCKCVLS

Structure (SMILES)	NRAS /KRAS [1, 4]	IC50 [2] [nM]	HRAS /KRAS [3, 5]	also measured
CCCC[C@H]1C(=O)N[C@@H]([C@@H](C)CC)C(=O)N(C)CC(=O)N(C)[C@H]2C/C=C\CCN(C2=O)[C@@H](Cc2ccc(C)cc2)C(=O)N(C)CC(=O)N[C@@H](CCc2cc(F)c(C(F)(F)F)c(F)c2)C(=O)N2C[C@H](OCC)C[C@H]2C(=O)NC2(CC(C)(C)C2)C(=O)N(C)[C@@H](C2CCCC2)C(=O)N(C)[C@H](C(=O)N(C)CC)CC(=O)N1C [PP2808]	B (a compound having 3 or more and less than 10 is denoted as B)	13.1	B (a compound having 3 or more and less than 10 is denoted as B)	–
CC[C@H](C)[C@@H]1NC(=O)[C@H](CC(C)C)N(C)C(=O)C[C@@H](C(=O)N2CCOCC2)N(C)C(=O)[C@H](C2CCCC2)N(C)C(=O)C2(CCCC2)NC(=O)[C@@H]2CCCN2C(=O)[C@H](CCc2ccc(C(F)(F)F)c(Cl)c2)NC(=O)CN(C)C(=O)[C@H](Cc2ccc(C)cc2)N(C)C(=O)CN(C)C(=O)CN(C)C1=O [PP0018] ([NMeL]I[Sar][Sar][NMePhe(4-Me)][Sar][hPhe(3-Cl-4-CF3)]P[Ac5c][NMeGly(cPent)][NMeD]-Morpholide; lactam N-11)	C (A compound having a KD ratio of 0.1 or more and less than 3 is denoted as C)	7	C (A compound having a KD ratio of 0.1 or more and less than 3 is denoted as C)	–
CC[C@H](C)[C@@H]1NC(=O)[C@H](CC(C)C)N(C)C(=O)C[C@@H](C(=O)N2CCOCC2)N(C)C(=O)[C@H](C2CCCC2)N(C)C(=O)C2(CCCC2)NC(=O)[C@@H]2CCCN2C(=O)[C@H](CCc2ccc(C(F)(F)F)c(Cl)c2)NC(=O)CN(C)C(=O)[C@H](Cc2ccc(C)cc2)N(CCOC)C(=O)CN(C)C(=O)CN(C)C1=O [PP0104] ([NMeL]I[Sar][Sar][X14][Sar][hPhe(3-Cl-4-CF3)]P[Ac5c][NMeGly(cPent)][NMeD]-Morpholide; lactam N-11)	B (a compound having 3 or more and less than 10 is denoted as B)	6.7	C (A compound having a KD ratio of 0.1 or more and less than 3 is denoted as C)	–
CCO[C@@H]1C[C@H]2C(=O)NC3(CC(C)(C)C3)C(=O)N(C)[C@@H](C3CCCC3)C(=O)N(C)[C@H](C(=O)N(C)C)CC(=O)N(C)[C@@H](CC(C)C)C(=O)N[C@@H]([C@@H](C)CC)C(=O)N(C)CC(=O)N(C)[C@H]3C/C=C\CCN(C3=O)[C@@H](Cc3ccc(OC)cc3)C(=O)N(C)CC(=O)N[C@@H](CCc3ccc(C(F)(F)F)c(OC)c3)C(=O)N2C1 [PP2693]	A (a compound having 10 or more and less than 20 is denoted as A)	–	B (a compound having 3 or more and less than 10 is denoted as B)	IC50 ([2]; NCI-H441 cells, 4 days, CellTiter-Glo, read-out: NCl-H441 IC50): 10.4 nM
CC[C@H](C)[C@@H]1NC(=O)[C@H](CC2CC2)N(C)C(=O)C[C@@H](C(=O)N(C)C)N(C)C(=O)[C@H](C2CCCC2)N(C)C(=O)C2(CC(C)(C)C2)NC(=O)[C@@H]2C[C@@H](C(F)(F)F)CN2C(=O)[C@H](CCc2cc(F)c(C(F)(F)F)c(F)c2)NC(=O)CN(C)C(=O)[C@H](Cc2ccc(C(F)(F)F)cc2)N2CC/C=C\C[C@@H](C2=O)N(C)C(=O)CN(C)C1=O [PP1504]	–	38	–	NRAS /KRAS [1, 6]: A (a compound having 10 or more and less than 20 is denoted as A); HRAS /KRAS [3, 7]: A (a compound having 10 or more and less than 20 is denoted as A)
CC[C@H](C)[C@@H]1NC(=O)[C@H](CC2CC2)N(C)C(=O)C[C@@H](C(=O)N2CCCC2)N(C)C(=O)[C@H](C2CCCC2)N(C)C(=O)C2(CCC2)NC(=O)[C@@H]2CC(F)(F)CN2C(=O)[C@H](CCc2cc(F)c(C(F)(F)F)c(F)c2)NC(=O)CN(C)C(=O)[C@H](Cc2ccc(C(F)(F)F)cc2)N2CC/C=C\C[C@@H](C2=O)N(C)C(=O)CN(C)C1=O [PP1512]	–	16.9	–	NRAS /KRAS [1, 6]: AA (a compound having 20 or more is denoted as AA); HRAS /KRAS [3, 7]: A (a compound having 10 or more and less than 20 is denoted as A)
CC[C@H](C)[C@@H]1NC(=O)[C@H](CC(C)C)N(C)C(=O)C[C@@H](C(=O)N(C)C)N(C)C(=O)[C@H](C2CCCC2)N(C)C(=O)C2(CCCC2)NC(=O)[C@@H]2CCCN2C(=O)[C@H](CCc2cc(F)c(C(F)(F)F)c(F)c2)NC(=O)CN(C)C(=O)[C@H](Cc2ccc(C(F)(F)F)cc2)N2CCCCC[C@@H](C2=O)N(C)C(=O)CN(C)C1=O [PP0507]	–	62.1	–	NRAS /KRAS [1, 8]: B (a compound having 3 or more and less than 10 is denoted as B); HRAS /KRAS [3, 9]: B (a compound having 3 or more and less than 10 is denoted as B)
CCC[C@H]1C(=O)N[C@@H]([C@@H](C)CC)C(=O)N(C)CC(=O)N(C)[C@H]2C/C=C\CCN(C2=O)[C@@H](Cc2ccc(C(F)(F)F)cc2)C(=O)N(C)CC(=O)N[C@@H](CCc2cc(F)c(C(F)(F)F)c(F)c2)C(=O)N2C[C@H](OCC)C[C@H]2C(=O)NC2(CC(C)(C)C2)C(=O)N(C)[C@@H](C(CC)CC)C(=O)N(C)[C@H](C(=O)N(C)C)CC(=O)N1C [PP2125]	–	4	–	NRAS /KRAS [1, 8]: AA (a compound having 20 or more is denoted as AA); HRAS /KRAS [3, 9]: A (a compound having 10 or more and less than 20 is denoted as A)
CCO[C@@H]1C[C@H]2C(=O)NC3(CCC3)C(=O)N(C)[C@@H](C3CCCC3)C(=O)N(C)[C@H](C(=O)N(C)C)CC(=O)N(C)[C@@H](CC)C(=O)N[C@@H]([C@@H](C)CC)C(=O)N(C)CC(=O)N(C)[C@H]3CC/C=C(/C)CN(C3=O)[C@@H](Cc3ccc(C(F)(F)F)cc3)C(=O)N(C)CC(=O)N[C@@H](CCc3cc(F)c(C(F)(F)F)c(F)c3)C(=O)N2C1 [PP1334]	–	968	–	NRAS /KRAS ([1]; ratio of KD with respect to GDP-bound NRAS wild-type protein to KD with respect to KRAS): B (a compound having 3 or more and less than 10 is denoted as B); HRAS /KRAS ([3]; ratio of KD with respect to HRAS wild-type protein to KD with respect to KRAS): B (a compound having 3 or more and less than 10 is denoted as B)
CCO[C@@H]1C[C@H]2C(=O)NC3(CCC3)C(=O)N(C)[C@@H](C3CCCC3)C(=O)N(CC)[C@H](C(=O)N(C)C)CC(=O)N(C)[C@@H](CC)C(=O)N[C@@H]([C@@H](C)CC)C(=O)N(C)CC(=O)N(C)[C@H]3C/C=C\CCN(C3=O)[C@@H](Cc3ccc(C(F)(F)F)cc3)C(=O)N(C)CC(=O)N[C@@H](CCc3cc(F)c(C(F)(F)F)c(F)c3)C(=O)N2C1 [PP0980]	A (a compound having 10 or more and less than 20 is denoted as A)	223	B (a compound having 3 or more and less than 10 is denoted as B)	–
CCO[C@@H]1C[C@H]2C(=O)NC3(CC(F)(F)C3)C(=O)N(C)[C@@H](C3CCCC3)C(=O)N(C)[C@H](C(=O)N(C)C)CC(=O)N(C)[C@@H](CC(C)C)C(=O)N[C@@H]([C@@H](C)CC)C(=O)N(C)CC(=O)N(C)[C@H]3C/C=C\CCN(C3=O)[C@@H](Cc3ccc(C(F)(F)F)cc3)C(=O)N(C)CC(=O)N[C@@H](CCc3cc(F)c(C(F)(F)F)c(F)c3)C(=O)N2C1 [PP1741]	–	2.3	–	NRAS /KRAS [1, 6]: A (a compound having 10 or more and less than 20 is denoted as A); HRAS /KRAS [3, 7]: B (a compound having 3 or more and less than 10 is denoted as B)
CCC(CC)[C@H]1C(=O)N(C)[C@H](C(=O)N(C)C)CC(=O)N(C)[C@@H](COC)C(=O)N[C@@H]([C@@H](C)CC)C(=O)N(C)CC(=O)N(C)[C@H]2C/C=C\CCN(C2=O)[C@@H](Cc2ccc(C(F)(F)F)cc2)C(=O)N(C)CC(=O)N[C@@H](CCc2cc(F)c(C(F)(F)F)c(F)c2)C(=O)N2CC[C@H]2C(=O)NC2(CC(C)(C)C2)C(=O)N1C [PP2918]	AA (a compound having 20 or more is denoted as AA)	126	A (a compound having 10 or more and less than 20 is denoted as A)	–
CCCN1C(=O)CN(C)C(=O)CN(C)C(=O)[C@H]([C@@H](C)CC)NC(=O)[C@H](CC(C)C)N(C)C(=O)C[C@@H](C(=O)N2CCOCC2)NC(=O)[C@H](C2CCCC2)N(C)C(=O)C2(CCCC2)NC(=O)[C@@H]2C[C@@H](OCC)CN2C(=O)[C@H](CCc2ccc(C(F)(F)F)c(Cl)c2)NC(=O)CN(C)C(=O)[C@@H]1Cc1ccc(C(F)(F)F)cc1 [PP0323] ([NMeL]I[Sar][Sar][NPrPhe(4-CF3)][Sar][hPhe(3-Cl-4-CF3)][Hyp](Et)[Ac5c][NMeGly(cPent)]D-Morpholide; lactam N-11)	B (a compound having 3 or more and less than 10 is denoted as B)	64	B (a compound having 3 or more and less than 10 is denoted as B)	–
CCC[C@H]1C(=O)N[C@@H]([C@@H](C)CC)C(=O)N(C)CC(=O)N(C)[C@H]2C/C=C\CCN(C2=O)[C@@H](Cc2ccc(C(F)(F)F)cc2)C(=O)N(C)CC(=O)N[C@@H](CCc2ccc(C(F)(F)F)c(OC)c2)C(=O)N2CCCCC[C@H]2C(=O)NC2(CC(C)(C)C2)C(=O)N(C)[C@@H](C(CC)CC)C(=O)N(C)[C@H](C(=O)N(C)C)CC(=O)N1C [PP2968]	AA (a compound having 20 or more is denoted as AA)	29.5	A (a compound having 10 or more and less than 20 is denoted as A)	–

Reference: patent publication EP4603105A1, “PHARMACEUTICAL COMPOSITION CONTAINING CYCLIC COMPOUND HAVING SELECTIVE KRAS INHIBITORY EFFECT AGAINST HRAS AND NRAS” (CHUGAI SEIYAKU KABUSHIKI KAISHA, priority 2022, dated 2024)
